Patent US8269000B2, “Substituted pyrimidine and triazine compounds” (Gruenenthal GmbH, priority 2008, dated 2012)

Biological target: T1, rat B1R (Rattus norvegicus, UniProt P97583)
T1 construct: expressed in transfected cells; host or cells: CHO K1 cells
T1 sequence (P97583 1-337): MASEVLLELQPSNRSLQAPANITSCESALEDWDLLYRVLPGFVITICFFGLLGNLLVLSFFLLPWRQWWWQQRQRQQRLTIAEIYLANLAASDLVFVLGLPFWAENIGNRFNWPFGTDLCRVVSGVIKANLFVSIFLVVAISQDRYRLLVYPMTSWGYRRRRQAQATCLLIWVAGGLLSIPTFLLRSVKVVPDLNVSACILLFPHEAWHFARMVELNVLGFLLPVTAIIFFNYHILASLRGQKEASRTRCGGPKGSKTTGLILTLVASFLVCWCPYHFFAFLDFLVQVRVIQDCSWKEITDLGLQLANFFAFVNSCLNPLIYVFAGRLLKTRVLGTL
Experiment: FLIPR Ca2+ functional study on bradykinin receptor 1 (rB1R CHO K1 cells)
Type: cell-based
Settings: CHO-K1, % inhibition rat B1R at 10 μM, read-out: % inh. (rat B1R) 10 μM
How it was run: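 Antagonism was calculated as % of maximal inhibition of the Ca2+ rise triggered by agonist at EC80 (Lys-Des-Arg9-bradykinin for hB1R, Des-Arg9-bradykinin for rB1R), added 10-20 min after test compound (10 μM or serial dilutions for IC50) to Fluo-4-loaded transfected CHO K1 cells on FLIPR. Duplicates or triplicates, ≥2 independent runs.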

| SMILES | inhibition at 10 µM [%] |
| --- | --- |
| COc1cc(C)c(S(=O)(=O)N2CCCCC2COc2nccc(N(C)CCN3CCC(O)(c4cccnc4)CC3)n2)c(C)c1 (stereo not shown) [G_CC-106, 1-[2-[[2-[[1-[(4-methoxy-2,6-dimethyl-phenyl)sulfonyl]-piperidin-2-yl]-methoxy]-pyrimidin-4-yl]-methyl-amino]ethyl]-4-pyridin-3-yl-piperidin-4-ol] | 95 |
| COc1cc(C)c(S(=O)(=O)N(C)C(COc2nccc(N3[C@@H]4CC[C@H]3CC(Oc3cccnc3)C4)n2)c2ccccc2)c(C)c1 (stereo partly drawn) [G_CC-107, 4-methoxy-N,2,6-trimethyl-N-[1-phenyl-2-[4-[(1S,5R)-3-pyridin-3-yloxy-8-azabicyclo[3.2.1]octan-8-yl]-pyrimidin-2-yl]oxy-ethyl]-benzenesulfonic acid amide] | 94 |
| COc1cc(C)c(S(=O)(=O)N(C)C(COc2nccc(N3CCC(CCCN4CCCC4)(c4cccnc4)CC3)n2)c2ccccc2)c(C)c1 (stereo not shown) [G_CC-108, 4-methoxy-N,2,6-trimethyl-N-[1-phenyl-2-[4-[4-pyridin-3-yl-4-(3-pyrrolidin-1-yl-propyl)-piperidin-1-yl]-pyrimidin-2-yl]oxy-ethyl]-benzenesulfonic acid amide] | 102 |
| COc1cc(C)c(S(=O)(=O)N2CCC[C@H]2COc2nccc(N3CCn4cc(CN5CCCCC5)nc4C3)n2)c(C)c1 [G_CC-109, 7-[2-[[(2S)-1-[(4-methoxy-2,6-dimethyl-phenyl)sulfonyl]-pyrrolidin-2-yl]-methoxy]-pyrimidin-4-yl]-2-(piperidin-1-yl-methyl)-5,6,7,8-tetrahydro-imidazo[1,2-a]pyrazine] | 98 |
| COc1cc(C)c(S(=O)(=O)N2CCCCC2COc2nccc(N3CCC(O)(c4ccncc4)CC3)n2)c(C)c1 (stereo not shown) [G_CC-111, 1-[2-[[1-[(4-methoxy-2,6-dimethyl-phenyl)sulfonyl]-piperidin-2-yl]-methoxy]-pyrimidin-4-yl]-4-pyridin-4-yl-piperidin-4-ol] | 90 |
| COc1cc(C)c(S(=O)(=O)N(C)C(COc2nccc(N3CCC(O)(c4ccncc4)CC3)n2)c2ccccc2)c(C)c1 (stereo not shown) [G_CC-112, N-[2-[4-(4-hydroxy-4-pyridin-4-yl-piperidin-1-yl)-pyrimidin-2-yl]oxy-1-phenyl-ethyl]-4-methoxy-N,2,6-trimethyl-benzenesulfonic acid amide] | 88 |
| COc1cc(C)c(S(=O)(=O)N2CCCCC2COc2nccc(N3CCC(c4ccccc4)(N(C)C)CC3)n2)c(C)c1 (stereo not shown) [G_CC-113, [1-[2-[[1-[(4-methoxy-2,6-dimethyl-phenyl)sulfonyl]-piperidin-2-yl]-methoxy]-pyrimidin-4-yl]-4-phenyl-piperidin-4-yl]-dimethyl-amine] | 79 |
| COc1cc(C)c(S(=O)(=O)N2CCCC(Oc3nccc(N4CCC(c5ccccc5)(N5CCCC5)CC4)n3)C2)c(C)c1 (stereo not shown) [G_CC-114, 2-[1-[(4-methoxy-2,6-dimethyl-phenyl)sulfonyl]-piperidin-3-yl]oxy-4-(4-phenyl-4-pyrrolidin-1-yl-piperidin-1-yl)-pyrimidine] | 54 |
| COc1cc(C)c(S(=O)(=O)N2CCC[C@H]2COc2nccc(N3CCC(c4ccccc4)(N4CCCC4)CC3)n2)c(C)c1 [G_CC-115, 2-[[(2S)-1-[(4-methoxy-2,6-dimethyl-phenyl)sulfonyl]-pyrrolidin-2-yl]-methoxy]-4-(4-phenyl-4-pyrrolidin-1-yl-piperidin-1-yl)-pyrimidine] | 81 |
| COc1cc(C)c(S(=O)(=O)N(C)CCOc2nccc(N3CCC(c4ccccc4)(N4CCCC4)CC3)n2)c(C)c1 [G_CC-116, 4-methoxy-N,2,6-trimethyl-N-[2-[4-(4-phenyl-4-pyrrolidin-1-yl-piperidin-1-yl)-pyrimidin-2-yl]oxy-ethyl]benzenesulfonic acid amide] | 64 |
| COc1cc(C)c(S(=O)(=O)N(C)CCOc2nccc(N3CCC(c4ccccc4)(N(C)C)CC3)n2)c(C)c1 [G_CC-117, N-[2-[4-(4-dimethylamino-4-phenyl-piperidin-1-yl)-pyrimidin-2-yl]oxy-ethyl]-4-methoxy-N,2,6-trimethyl-benzenesulfonic acid amide] | 56 |
| COc1cc(C)c(S(=O)(=O)N2c3ccccc3C[C@H]2COc2nccc(N3CCC(c4cccs4)(N(C)C)CC3)n2)c(C)c1 [G_CC-125, [1-[2-[[(2S)-1-[(4-methoxy-2,6-dimethyl-phenyl)sulfonyl]-2,3-dihydro-1H-indol-2-yl]-methoxy]-pyrimidin-4-yl]-4-thiophen-2-yl-piperidin-4-yl]-dimethyl-amine] | 58 |

The next lines start with the values.

| inhibition at 10 µM [%] | SMILES |
| --- | --- |
| 86 | COc1cc(C)c(S(=O)(=O)N(C)CCOc2nccc(N3CCC(c4cccs4)(N(C)C)CC3)n2)c(C)c1 [G_CC-118, N-[2-[4-(4-dimethylamino-4-thiophen-2-yl-piperidin-1-yl)-pyrimidin-2-yl]oxy-ethyl]-4-methoxy-N,2,6-trimethyl-benzenesulfonic acid amide] |
| 79 | COc1cc(C)c(S(=O)(=O)N(C)CCOc2nccc(N(C)CCN3CCC(c4ccccc4)(N4CCCC4)CC3)n2)c(C)c1 [G_CC-119, 4-methoxy-N,2,6-trimethyl-N-[2-[4-[methyl-[2-(4-phenyl-4-pyrrolidin-1-yl-piperidin-1-yl)-ethyl]-amino]-pyrimidin-2-yl]oxy-ethyl]benzenesulfonic acid amide] |
| 86 | CCCCC1(N(C)C)CCN(CCN(C)c2ccnc(OCCN(C)S(=O)(=O)c3c(C)cc(OC)cc3C)n2)CC1 [G_CC-120, N-[2-[4-[2-(4-butyl-4-dimethylamino-piperidin-1-yl)-ethyl-methyl-amino]-pyrimidin-2-yl]oxy-ethyl]-4-methoxy-N,2,6-trimethyl-benzenesulfonic acid amide] |
| 75 | COc1cc(C)c(S(=O)(=O)N2CCCCC2COc2nccc(N3CCC(c4ccccc4)(N4CCCC4)CC3)n2)c(C)c1 (stereo not shown) [G_CC-121, 2-[[1-[(4-methoxy-2,6-dimethyl-phenyl)sulfonyl]-piperidin-2-yl]-methoxy]-4-(4-phenyl-4-pyrrolidin-1-yl-piperidin-1-yl)-pyrimidine] |
| 51 | COc1cc(C)c(S(=O)(=O)N2CC(Oc3nccc(N4CCC(c5ccccc5)(N5CCCC5)CC4)n3)C2)c(C)c1 [G_CC-122, 2-[1-[(4-methoxy-2,6-dimethyl-phenyl)sulfonyl]-azetidin-3-yl]oxy-4-(4-phenyl-4-pyrrolidin-1-yl-piperidin-1-yl)-pyrimidine] |
| 81 | COc1cc(C)c(S(=O)(=O)N2CC(Oc3nccc(N(C)CCN4CCC(c5ccccc5)(N(C)C)CC4)n3)C2)c(C)c1 [G_CC-123, 2-(4-dimethylamino-4-phenyl-piperidin-1-yl)-ethyl-[2-[1-[(4-methoxy-2,6-dimethyl-phenyl)sulfonyl]-azetidin-3-yl]oxy-pyrimidin-4-yl]-methyl-amine] |
| 57 | COc1cc(C)c(S(=O)(=O)N2CC(Oc3nccc(N(C)CCN4CCC(c5ccccc5)(N5CCCC5)CC4)n3)C2)c(C)c1 [G_CC-124, [2-[1-[(4-methoxy-2,6-dimethyl-phenyl)sulfonyl]-azetidin-3-yl]oxy-pyrimidin-4-yl]-methyl-[2-(4-phenyl-4-pyrrolidin-1-yl-piperidin-1-yl)-ethyl]amine] |
| 77 | COc1cc(C)c(S(=O)(=O)N2CC(Oc3nccc(N(C)CCCN4CCC(c5ccccc5)(N(C)C)CC4)n3)C2)c(C)c1 [G_CC-126, 3-(4-dimethylamino-4-phenyl-piperidin-1-yl)-propyl-[2-[1-[(4-methoxy-2,6-dimethyl-phenyl)sulfonyl]-azetidin-3-yl]oxy-pyrimidin-4-yl]-methyl-amine] |
| 54 | COc1cc(C)c(S(=O)(=O)N2CC(Oc3nccc(N4CCN(CCCN(C)C)CC4)n3)C2)c(C)c1 [G_CC-127, 3-[4-[2-[1-[(4-methoxy-2,6-dimethyl-phenyl)sulfonyl]-azetidin-3-yl]oxy-pyrimidin-4-yl]-piperazin-1-yl]-propyl-dimethyl-amine] |
| 57 | COc1cc(C)c(S(=O)(=O)N2CC(Oc3nccc(N4CCC(O)(c5cccnc5)CC4)n3)C2)c(C)c1 [G_CC-128, 1-[2-[1-[(4-methoxy-2,6-dimethyl-phenyl)sulfonyl]-azetidin-3-yl]oxy-pyrimidin-4-yl]-4-pyridin-3-yl-piperidin-4-ol] |
| 73 | COc1cc(C)c(S(=O)(=O)N2CC(Oc3nccc(N4CCC(CCN5CCCCC5)CC4)n3)C2)c(C)c1 [G_CC-129, 2-[1-[(4-methoxy-2,6-dimethyl-phenyl)sulfonyl]-azetidin-3-yl]oxy-4-[4-(2-piperidin-1-yl-ethyl)-piperidin-1-yl]-pyrimidine] |
| 61 | COc1cc(C)c(S(=O)(=O)N2c3ccccc3C[C@H]2COc2nccc(N3CC4CC3CN4Cc3ccc(F)cc3)n2)c(C)c1 (stereo partly drawn) [G_CC-130, (2S)-2-[[4-[2-[(4-fluorophenyl)-methyl]-2,5-diazabicyclo[2.2.1]heptan-5-yl]-pyrimidin-2-yl]oxy-methyl]-1-[(4-methoxy-2,6-dimethyl-phenyl)sulfonyl]-2,3-dihydro-1H-indole] |
| 88 | COc1cc(C)c(S(=O)(=O)N2CCCCC2COc2nccc(N3CCC(C)(N4CCOCC4)CC3)n2)c(C)c1 (stereo not shown) [G_CC-131, 4-[1-[2-[[1-[(4-methoxy-2,6-dimethyl-phenyl)sulfonyl]-piperidin-2-yl]-methoxy]-pyrimidin-4-yl]-4-methyl-piperidin-4-yl]-morpholine] |
